Data taken from US20100029702A1, “Method For Identification of Compound Having Anti-Anxiety Effect” (priority 2006, published 2010).

Columns and labels:
CHO-K1 cell strain = experiment: Changes in intracellular Ca2+ concentration in CHO-K1 host cell not transfected (negative control); type: cell-based, Chinese hamster
Method: The specific method for measuring changes in the intracellular Ca^2+ concentration in the HA-ph01207#10-6 cell strain induced by CCK-8S (SEQ ID NO: 14) and the results are described below. The HA-ph01207#10-6 cell strain was seeded on a 96-well plate (a plate with a black wall and a transparent bottom) at a cell count of 2×10^4/100 μL medium/well and cultured at 37° C. in the presence of 5% CO2. As a medium, DMEM/F12 (Gibco) containing 10% fetal calf serum (Moregate) was used. On the following day, 50 μL of the medium was removed from each well, 50 μL of a loading buffer was added to each well, and the mixture was reacted at room temperature for 1.5 h, so that a fluorescent dye contained in the loading buffer should be taken up into the cell. The loading buffer was prepared by dissolving component A of the FLIPR Calcium 3 Assay Kit (Molecular Device) in a solution obtained by adding 0.1 mL of 500 mM probenecid (Sigma) to 9.9 mL of component B. After reaction, changes over time in the fluorescence intensity in each well after addition of CCK-8S (Peptide Institute, Inc.) were measured using the FLEX station (Molecular Device). Furthermore, similar measurement was performed for CCK-8NS (Peptide Institute, Inc.) and CCK-4 (Peptide Institute, Inc.). 0.52 mg of CCK-8S (SEQ ID NO: 14) was dissolved in 4.5 mL of 1% NaHCO3 (Wako) to prepare a solution having 0.1 mM concentration. 0.53 mg of CCK-8NS was dissolved in 0.50 mL of dimethyl sulfoxide (DMSO, Sigma), and then 4.50 mL of redistilled water H2O was added to prepare a solution having 0.1 mM concentration. 0.54 mg of CCK-4 was dissolved in 0.46 mL of DMSO, 4.09 mL of redistilled water was added to prepare a solution having 0.2 mM concentration. CCK-8S (SEQ ID NO: 14), CCK-8NS, and CCK-4 were diluted in phosphate-buffered physiological saline (PBS) to prepare 5 nM solutions, and 25 μL each was added (final concentration 1 nM) to perform measurement. As a positive control for including an increase in the intracellular Ca^2+ concentration, A23187 (Calbiochem) was used at a final concentration of 10 μM. As a negative control, the CHO-K1 cell strain used to prepare the HA-ph01207#10-6 cell strain as a host was used. Since the CHO-K1 cell strain was not transfected with the ph01207-expressing vector, the ph01207 gene product was not expressed.
Changes in the intracellular calcium (Ca^2+) concentration induced by CCK-8S were measured by a method similar to the method described in Example 5 using the 7tmHR stably-expressing strain and the hk01941 stably-expressing strain prepared in Example 7. As a control, a host cell not transfected with the 7tmHR-expressing vector or the hk01941-expressing vector was also used.
(§1) Cells were seeded in a 96-well plate (a plate with a black wall and a transparent bottom) at a cell count of 3×10^4/100 μL of medium/well and cultured overnight at 37° C. in a 5% CO2 incubator. On the following day, 50 μL of the medium was removed from each well, 50 mL of a loading buffer was added to each well, and the mixture was reacted at room temperature for 1 h, so that a fluorescent dye contained in the loading buffer was taken up into the cell. The loading buffer was prepared by a method similar to the method described in Example 5. After reaction, changes over time in the fluorescence intensity in each well after addition of CCK-8S were measured using the FLEX station (Molecular Device). CCK-8S was used at a final concentration of 10 pM to 1 μM. Furthermore, as a positive control of the assay, A23187 was used at a final concentration of 20 μM.
Cells were seeded in a 96-well plate (a plate with a black wall and a transparent bottom) at a cell count of 3×10^4/100 μL of medium/well and cultured overnight at 37° C. in a 5% CO2 incubator. […]

7tmHR = biological target: T1, 7tmHR (Homo sapiens, UniProt O60241); experiment: Changes in intracellular Ca2+ concentration in 7tmHR stably-expressing strain; type: cell-based
T1 construct: a vector expressing each full-length cDNA clone was constructed; expressed in transfected cells; host or cells: CHO-K1, 7tmHR/pcDNA3.1
T1 sequence (O60241 13-1585): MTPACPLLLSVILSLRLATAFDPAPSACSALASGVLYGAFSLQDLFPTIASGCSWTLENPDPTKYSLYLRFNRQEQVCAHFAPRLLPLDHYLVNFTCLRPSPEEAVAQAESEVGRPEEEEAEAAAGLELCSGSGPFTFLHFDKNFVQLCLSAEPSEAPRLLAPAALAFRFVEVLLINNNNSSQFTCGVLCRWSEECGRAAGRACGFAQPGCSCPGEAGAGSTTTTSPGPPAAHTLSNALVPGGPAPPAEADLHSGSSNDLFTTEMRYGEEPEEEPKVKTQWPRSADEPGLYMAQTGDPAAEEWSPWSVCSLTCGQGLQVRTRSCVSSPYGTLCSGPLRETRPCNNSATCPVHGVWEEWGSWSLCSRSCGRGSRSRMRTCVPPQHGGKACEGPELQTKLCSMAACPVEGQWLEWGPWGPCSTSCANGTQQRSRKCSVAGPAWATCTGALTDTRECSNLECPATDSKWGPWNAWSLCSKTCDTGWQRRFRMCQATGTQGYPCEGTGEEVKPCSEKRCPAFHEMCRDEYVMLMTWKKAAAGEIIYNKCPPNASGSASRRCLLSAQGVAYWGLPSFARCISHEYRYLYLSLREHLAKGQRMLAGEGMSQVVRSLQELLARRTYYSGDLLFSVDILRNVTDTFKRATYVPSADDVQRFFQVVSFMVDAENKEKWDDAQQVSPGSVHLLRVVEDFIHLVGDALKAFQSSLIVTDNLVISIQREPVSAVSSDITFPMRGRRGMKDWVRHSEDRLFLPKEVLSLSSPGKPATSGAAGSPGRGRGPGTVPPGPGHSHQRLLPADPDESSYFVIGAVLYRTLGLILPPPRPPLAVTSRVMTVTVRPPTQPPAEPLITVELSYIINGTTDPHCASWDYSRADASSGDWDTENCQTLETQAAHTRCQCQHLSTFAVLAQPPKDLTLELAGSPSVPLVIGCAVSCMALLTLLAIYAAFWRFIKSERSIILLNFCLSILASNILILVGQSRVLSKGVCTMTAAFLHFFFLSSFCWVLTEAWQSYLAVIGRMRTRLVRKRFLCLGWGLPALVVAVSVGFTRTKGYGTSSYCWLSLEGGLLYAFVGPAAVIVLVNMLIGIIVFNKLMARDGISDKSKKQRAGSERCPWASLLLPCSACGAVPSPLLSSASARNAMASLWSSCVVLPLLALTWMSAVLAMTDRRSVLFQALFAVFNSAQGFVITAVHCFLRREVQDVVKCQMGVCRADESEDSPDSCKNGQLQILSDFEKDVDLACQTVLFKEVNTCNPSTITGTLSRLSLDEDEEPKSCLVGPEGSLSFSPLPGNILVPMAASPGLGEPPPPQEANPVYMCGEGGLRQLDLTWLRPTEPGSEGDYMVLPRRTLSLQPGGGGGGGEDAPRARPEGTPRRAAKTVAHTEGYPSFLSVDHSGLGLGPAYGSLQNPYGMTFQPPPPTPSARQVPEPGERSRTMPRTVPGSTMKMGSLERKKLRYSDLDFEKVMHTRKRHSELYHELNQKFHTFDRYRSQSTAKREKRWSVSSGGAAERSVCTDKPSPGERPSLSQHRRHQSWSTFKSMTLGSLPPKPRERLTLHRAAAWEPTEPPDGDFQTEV
Method: The 7tmHR stably-expressing strain and the hk01941 stably-expressing strain were prepared by transfecting the 7tmHR-expressing vector (7tmHR/pcDNA3.1) and the hk01941-expressing vector (hk01941/pcDNA3.1), respectively, into a CHO-K1 cell strain. Specifically, the expression vector was mixed with Lipofectamine 2000, (may be referred to as LF2000, Invitrogen) (4 μg DNA/250 μL of DMEM/F12 medium+10 μL of LF2000/250 μL DMEM/F12 medium) and added the CHO-K1 strain (2 mL medium/well) cultured in a 6-well plate to be transfected thereinto. On the following day, cells were recovered and seeded in a 96-well plate at cell density of 1 cell/well, cultured in a selective medium containing G418 (400 μg/mL) (DMEM/F 12 medium containing 10% FCS), and screened for expression cell strains. […]
Changes in the intracellular calcium (Ca^2+) concentration induced by CCK-8S were measured by a method similar to the method described in Example 5 using the 7tmHR stably-expressing strain and the hk01941 stably-expressing strain prepared in Example 7. […]
Cells were seeded in a 96-well plate (a plate with a black wall and a transparent bottom) at a cell count of 3×10^4/100 μL of medium/well and cultured overnight at 37° C. in a 5% CO2 incubator. […] After reaction, changes over time in the fluorescence intensity in each well after addition of CCK-8S were measured using the FLEX station (Molecular Device). […]

variant 3 = experiment: Changes in intracellular Ca2+ concentration in variant 3 gene stably-expressing strain; type: cell-based, human; details: variant3/CHO#14-18; A23187 20 μM, positive control
Method: Strains stably expressing splicing variants of the variant 3 gene were prepared by a method similar to the above-mentioned method using a variant 3 gene-expressing vector.
To analyze functions of the variant 3 gene, changes in the intracellular calcium (Ca^2+) concentration induced by CCK-8S were examined using a strain stably expressing the variant 3 gene prepared in Example 7. Changes in the intracellular calcium (Ca^2+) concentration were measured by a method similar to the method described in Example 5.
as §1, with “well, 50 μL of a” for “well, 50 mL of a”, “each well, the mixture” for “each well, and the mixture”, “fluorescence intensity after addition” for “fluorescence intensity in each well after addition”, “of CCK-8S in each well were measured” for “of CCK-8S were measured”, “station (Molecular Device) for 40 sec. CCK-8S was” for “station (Molecular Device). CCK-8S was”

| Molecule | Change in intracellular Ca2+ concentration (fluorescence intensity) (CHO-K1 cell strain; CHO-K1 not transfected, peptide 1 nM (Example 5)) | Change in intracellular calcium concentration after addition of CCK-8S (CHO-K1 cell strain; host cell not transfected with the expressing vector (Examples 8, 9)) | Change in intracellular Ca2+ concentration after addition of CCK-8S (7tmHR; 7tmHR stably-expressing strain, CCK-8S 10 pM to 1 μM, figure at 1 nM) | Change in intracellular Ca2+ concentration (fluorescence intensity) (CHO-K1 cell strain; CHO-K1 not transfected, A23187 10 μM (Example 5)) | Change in intracellular Ca2+ concentration (fluorescence intensity) (CHO-K1 cell strain; host cell CHO-K1 not transfected, A23187 20 μM (Examples 8, 9)) | Change in intracellular Ca2+ concentration (fluorescence intensity) (7tmHR; 7tmHR/CHO#6, A23187 20 μM, positive control) | Change in intracellular Ca2+ concentration (fluorescence intensity) (variant 3) |
| --- | --- | --- | --- | --- | --- | --- | --- |
| cholecystokinin octapeptide sulfated form [CCK-8S] | not increased | no change | increase | – | – | – | – |
| CNc1ccc2oc(C[C@H]3O[C@@]4(CC[C@H]3C)O[C@H]([C@H](C)C(=O)c3ccc[nH]3)[C@H](C)C[C@H]4C)nc2c1C(=O)O [A23187] | – | – | – | increased | increased | increased | increased |
